We go through 79 compounds from paper PMC12040169 (PLOS Biology, 2025).

The viability is a read-out of living cells in per cent, often relative to untreated cells.

A short description of the data set: in vitro. The conditions noted are these: human, hela cells, % viability.

On to `COC(=O)c1ccc2c(=O)n(CC3CCCO3)c(SC)nc2c1` (stereo not shown) [CBK304535], for which the viability at 28.5 h, 10 µM was found to be 108%. Take `CC(=O)Nc1cccc(C(=O)N2CCN(CC3CCCO3)CC2)c1` (stereo not shown) [CBK305158]: the viability at 28.5 h, 10 µM was 96%. Regarding `O=C(O)C1C2CCC(O2)C1C(=O)Nc1ccc(S(=O)(=O)N2CCc3ccccc32)cc1` (stereo not shown) [CBK268137], the viability at 28.5 h, 10 µM was 93.1%. The same measure for `Cc1cccc(-c2noc([C@@H]3Cc4[nH]cnc4CN3C(=O)CC(C)(C)CC(=O)O)n2)c1` [CBK288961]: 95.8%; for `O=C(c1ccccc1)N1C[C@@H](c2ccsc2)[C@@H]2CN(Cc3cccc(Cl)c3)CC[C@@H]21` [CBK285603]: 108%. Turning to `NC(=O)C1(N2CCCCC2)CCN(C(=S)Nc2ccc(F)c(Cl)c2)CC1` [CBK267165], the viability at 28.5 h, 10 µM stood at 97.4%. The same measure for `CNC(=O)C1(Cc2ccc(-c3ccccc3)cc2)CCN(C(=O)c2cccc(OC)c2)CC1` [CBK285788]: 105%; for `Cn1c(CCC(=O)Nc2c[nH]c3ccccc23)nc2ccccc21` [CBK282507]: 85.9%; for `O=C(NCc1nnc2ccccn12)c1ccccc1` [CBK288064]: 110%. For `CCNC(=O)N1CC(C)N(CCCCc2ccc(F)cc2)C(C)C1` (stereo not shown) [CBK025027C] the value was 89.9%. For the compound `O=C(C1CC1)N1CCC2(CC1)Nc1ccccc1-n1cccc12` [CBK284011], the viability at 28.5 h, 10 µM was found to be 91.5%. The same measure for `O=C(O)c1[nH]c2ccccc2c1C(c1cccs1)c1c(C(=O)O)[nH]c2ccccc12` [CBK267786]: 118%.

`COc1ccc(Cl)cc1CN(C)C(=O)c1cnn2cc(CCO)cnc12` [CBK307236]: the viability at 28.5 h, 10 µM was 97.7%. In the case of `CN1CCN(S(=O)(=O)c2ccc(Br)cc2C(F)(F)F)CC1` [CBK062437], the viability at 28.5 h, 10 µM turned out to be 90.7%. As to `O=C(CCCc1ccccc1)Nc1ccc(O)cc1C(=O)O` [CBK131699], the viability at 28.5 h, 10 µM amounted to 99.7%. Consider `O=C1CCC(C(=O)O)(c2ccccc2)N1c1ccccc1` (stereo not shown) [CBK116358], for which the viability at 28.5 h, 10 µM came out at 94.8%. In the case of `O=C(O)c1cccc(N2C(=O)CC(n3cnc4ccccc43)C2=O)c1` (stereo not shown) [CBK291145], the viability at 28.5 h, 10 µM was found to be 89.8%. As for `CC1CN(c2cc(CNc3ncccc3Cl)ccn2)CCO1` (stereo not shown) [CBK306456], the viability at 28.5 h, 10 µM was 88.3%.

As to `O=C(NN=Cc1ccc(O)cc1)c1cc[n+](Cc2ccccc2)cc1` [CBK262047C], the viability at 28.5 h, 10 µM was found to be 87.3%. For `CC(Cn1cccn1)NCc1cn(C)c2cc(F)ccc12` (stereo not shown) [CBK282220], the viability at 28.5 h, 10 µM turned out to be 88.4%. On to `CCNC(=O)Nc1nc2cccnc2cc1-c1ccccc1` [CBK081239], for which the viability at 28.5 h, 10 µM came out at 101%. The same measure for `COC(=O)[C@@H]1Cc2ncn(C)c2CN1S(=O)(=O)c1cccs1` [CBK288992]: 104%.

In the case of `O=C(C1CC=CCC1)N1CCCC(c2[nH]ncc2-c2ccncc2)C1` (stereo not shown) [CBK284198], the viability at 28.5 h, 10 µM was 93.2%. As to `Cn1cc(C(=O)NC2CCN(c3ccc(C#N)cc3F)CC2)cn1` [CBK304939], the viability at 28.5 h, 10 µM turned out to be 83.7%.

As to `Cc1ccc([N+](=O)[O-])cc1S(=O)(=O)NCC(=O)O` [CBK266234], the viability at 28.5 h, 10 µM is 94.7%.

For `Cc1cc2ccccc2n2c(SCC(=O)NCC3CCCO3)nnc12` (stereo not shown) [CBK265688], the viability at 28.5 h, 10 µM stood at 103%. As to `c1coc(CNc2ncc(-c3ccc(N4CCOCC4)cc3)n3ccnc23)c1` [CBK091220], the viability at 28.5 h, 10 µM is 102%.

On to `CCOc1cc(/C=C2/NC(=O)N(c3ccccc3)C2=O)cc(Cl)c1OCc1cccc(C(=O)O)c1` [CBK265160], for which the viability at 28.5 h, 10 µM was determined as 92%.

As for `Cc1ccc(S(=O)(=O)N2CCC(C(=O)NC(c3ccccc3C)c3ncccc3C)CC2)cc1` (stereo not shown) [CBK060249], the viability at 28.5 h, 10 µM was 94.3%. As to `COCCNc1cc(-c2ccc(F)c(F)c2)ncn1` [CBK090800], the viability at 28.5 h, 10 µM came to 100%. Turning to `O=C1CC(c2cccnc2)=NN1c1ccc(Cl)cc1Cl` [CBK067764], the viability at 28.5 h, 10 µM came to 97.7%.

Take `O=C(NC1CC1)[C@H]1CN2CCC1C[C@@H]2Cn1cc(CC2CCCCC2)nn1` (stereo partly shown) [CBK288739]: the viability at 28.5 h, 10 µM was 103%. Turning to `FC(F)(F)c1cccc(OCCOc2ccccc2)n1` [CBK115835], the viability at 28.5 h, 10 µM turned out to be 87.7%. Consider `O=C(O)c1cccc(NC(=S)NC(=O)c2ccc(-c3ccc(Br)cc3)o2)c1` [CBK265014], for which the viability at 28.5 h, 10 µM was found to be 95.6%. For `COC(=O)c1sccc1S(=O)(=O)n1ccc2ccc(Br)cc21` [CBK003528] the value was 92.6%; for `CC(C)Oc1ncc(C(=O)Nc2cnn(CC(N)=O)c2)cc1Cl` [CBK306311], 90.4%; for `COc1ccc(C(=O)CN2CCN(CCN3C(=O)c4cccc5cccc(c45)C3=O)CC2)cc1` [CBK074628], 75.7%. With `CCOC(=O)C1CCCN(Cc2nc(-c3ccc(F)cc3F)oc2C)C1` (stereo not shown) [CBK306749], the viability at 28.5 h, 10 µM stood at 94.3%. For the compound `O=C1C[C@@H]2CCN(C(=O)Nc3cccc(C(F)(F)F)c3)C[C@@H]2CCN1CCc1c[nH]cn1` [CBK288786], the viability at 28.5 h, 10 µM came to 105%. Consider `COc1cccc(CNc2nccnc2-c2ccoc2)c1OC` [CBK036782], for which the viability at 28.5 h, 10 µM is 105%.

For `COc1ccc(NC(=O)N[C@H]2[C@H](O)[C@@H](Sc3ccccc3)[C@@H]3OC[C@H]2O3)cc1` [CBK288813], the viability at 28.5 h, 10 µM is 96.4%. In the case of `O=c1ccccn1COCc1ccccc1` [CBK006438], the viability at 28.5 h, 10 µM stood at 103%.

For the compound `Cc1ccc(NC(=O)CSc2nc3ccccc3c(=O)n2Cc2ccco2)cc1Cl` [CBK265606], the viability at 28.5 h, 10 µM amounted to 102%. On to `Cc1[nH]c2ccccc2c1C(CC(=O)c1ccc(Br)cc1)C(=O)O` (stereo not shown) [CBK269480], for which the viability at 28.5 h, 10 µM is 90.9%. For `Cc1ccc(S(=O)(=O)Nc2ccc(Nc3cc(-c4ccc(CNC(=O)OC(C)(C)C)cc4)ncn3)cc2)cc1` [CBK090967] the value was 96.8%; for `O=C(NCCOc1ccccc1)c1nn(-c2ncccn2)c2ccccc12` [CBK048494], 81%. As for `COc1ccc(C2NC(C(=O)O)CS2)cc1CN1CCOCC1` (stereo not shown) [CBK287132], the viability at 28.5 h, 10 µM stood at 87.4%. Take `Cc1ccc(C2CCC(C(=O)O)C(C(=O)O)C2)cc1C` (stereo not shown) [CBK287184]: the viability at 28.5 h, 10 µM is 98.2%. On to `Cn1c(N2CC[C@H](O)C2)nc2cc(C(=O)NC3CCCC3)ccc21` [CBK306779], for which the viability at 28.5 h, 10 µM turned out to be 97.6%.

With `O=C(NCC(F)(F)F)c1ccc(-c2ccccc2)nc1NCc1cccnc1` [CBK076551], the viability at 28.5 h, 10 µM was determined as 95%. The same measure for `O=c1c2ccccc2[nH]c(=S)n1CCCN1CCOCC1` [CBK092141]: 88.1%. On to `O=C(c1cc(-c2ccncc2)nc2ccc(Cl)cc12)N1CCN(c2ccc([N+](=O)[O-])cc2)CC1` [CBK267748], for which the viability at 28.5 h, 10 µM is 83.8%. For `COC(=O)c1ccc(C(=O)OC)c(NC(=O)C2CCCCC2C(=O)O)c1` (stereo not shown) [CBK265422], the viability at 28.5 h, 10 µM came to 88%.

With `NS(=O)(=O)c1ccc(CCNCC2CCCCC2)cc1` [CBK288467], the viability at 28.5 h, 10 µM was 92.5%. The same measure for `CC1CC1C(=O)NCCN1CCC(O)(c2ccc(F)cc2)CC1` (stereo not shown) [CBK283168]: 96.7%; for `Cc1[nH]c2ccccc2c1C(=O)CSc1nncc2ccccc12` [CBK297912]: 92.1%. Turning to `Cc1cnc2c(c1)cc(C(F)(F)F)n2CC(=O)NC1CC1` [CBK282887], the viability at 28.5 h, 10 µM was 105%. As to `FC(F)(F)c1ccc(CN2CCN(c3nccnc3OCc3cccnc3)CC2)cc1` [CBK083133T], the viability at 28.5 h, 10 µM came to 101%.

Consider `CN(C)c1nc2n(c(=O)n1)CCS2` [CBK019025], for which the viability at 28.5 h, 10 µM turned out to be 92.3%. The same measure for `CCc1nc2ccc(NC(=O)CCCc3ccncc3)cc2[nH]1` [CBK283268]: 111%; for `CCc1nn(CC(=O)NC2CCCC2)c(=O)c2cc3ccsc3n12` [CBK284134]: 98.4%; for `Cn1c(=O)[nH]c(=O)c2c1nc(Sc1ncccn1)n2CCCc1ccccc1` [CBK269282]: 86.3%.

For `CC(C)Nc1nc2ccccc2nc1OCc1ccsc1` [CBK115660], the viability at 28.5 h, 10 µM worked out at 104%. In the case of `CCN1CCN(c2ccc(C(=O)OC)cc2NC(=O)c2ccc(C#N)cc2F)CC1` [CBK270171], the viability at 28.5 h, 10 µM was 101%. As to `CCn1cc(S(=O)(=O)NC2(c3ccc(F)cc3)CC2)c(C)n1` [CBK282837], the viability at 28.5 h, 10 µM amounted to 92.4%. For `OCCCNc1nccnc1-c1cccc(F)c1` [CBK088976], the viability at 28.5 h, 10 µM amounted to 98.5%. As for `Cc1nc2c(C(=O)NCCCN3CCCC3=O)cnn2c(C)c1Cc1cccc(F)c1` [CBK162104], the viability at 28.5 h, 10 µM is 101%. Regarding `O=C(C1C2CCCCC21)N1CCC(Oc2ccc(F)cc2)CC1` (stereo not shown) [CBK282065], the viability at 28.5 h, 10 µM came to 92.1%. Regarding `Cc1csc(S(=O)(=O)Cc2nnc(C)n2C2CC2)n1` [CBK305494], the viability at 28.5 h, 10 µM was determined as 98.4%. `COc1cc(NC(=O)c2nc[nH]n2)c(OC)cc1Cl` [CBK288170]: the viability at 28.5 h, 10 µM amounted to 93%. As for `O=c1c2ccccc2[nH]c(=S)n1CCCN1CCC(Cc2ccccc2)CC1` [CBK267952], the viability at 28.5 h, 10 µM amounted to 86.2%. As for `O=C(Cn1cccn1)NC(Cc1ccsc1)c1nccs1` (stereo not shown) [CBK284666], the viability at 28.5 h, 10 µM stood at 94%. For `Cn1c(=O)[nH]c(=O)c2c1nc(CN1CCOCC1)n2Cc1ccc(F)cc1` [CBK270040], the viability at 28.5 h, 10 µM turned out to be 99.2%.

With `O=C(Nc1ccc(Cl)cc1Cl)C1CC2CCC1C2` (stereo not shown) [CBK058237], the viability at 28.5 h, 10 µM is 102%. Regarding `C=C(C)CN1CCN(C(=O)c2cc3cccc(OC)c3oc2=O)CC1` [CBK269211], the viability at 28.5 h, 10 µM came out at 59%. As to `CN1CCN(C(=O)c2[nH]c3ccccc3c2NS(=O)(=O)Cc2ccccc2[N+](=O)[O-])CC1` [CBK050059], the viability at 28.5 h, 10 µM was 92.6%. Consider `O=C1CCC(=O)N1CCOc1nccnc1OC1CCN(CCc2ccccn2)CC1` [CBK084360], for which the viability at 28.5 h, 10 µM is 99.5%. Take `Cc1c(-c2ccnc(N3CCOCC3)n2)cnc2nc(-c3ccncc3)nn12` [CBK288551]: the viability at 28.5 h, 10 µM turned out to be 98.6%. Take `CC(=O)N1C[C@H]2CCCN(S(=O)(=O)c3cccs3)[C@H]2C1` [CBK285275]: the viability at 28.5 h, 10 µM came out at 84.3%.
